According to patent US20180290979A1, “COMPOSITION HAVING COMPOUND ACCELERATING PHOSPHORYLATION OF AMPK AS EFFECTIVE COMPONENT” (Kyoto University, priority 2015, published 2018):

Legend:
NIH/3T3 cells [1] = assay: Inhibition of cell death caused by serum starvation, WST-8 assay; format: cell-based, mouse; conditions: serum-free
Protocol: NIH/3T3 cells were cultured under serum-containing or serum-free conditions, and after a predetermined period of time, a WST-8 assay was performed to confirm the cell number (N=6).
FIG. 2 is a graph comparing the viable cell numbers in the serum-starved condition in the presence and absence of Compound 1.

HeLa cells [2] = assay: Effect of autophagy inhibitor 3-MA on cell death induced by Compound 1, WST-8 assay; format: cell-based, human
Protocol: 3-Methyladenine (3-MA) is a class III PI3K inhibitor and is also an autophagy inhibitor. 3-MA was added to HeLa cells for one hour, and three days later, a WST-8 assay was performed to confirm the number of the cells.
Thus, it was confirmed that cell death induced by Compound 1 in cancer cells was autophagic.

[3] = test system: ACC (acetyl-CoA carboxylase); assay: Enhancement of phosphorylation of ACC, Western blotting in NIH/3T3 cells; format: cell-based, mouse
Protocol: (§1) Compound 1 was added to mouse fibroblast NIH/3T3 cells under serum-free conditions, the cells were harvested over a period of time to prepare a disrupted cell suspension, and phosphorylated AMPKα, total AMPKα, phosphorylated ACC, and total ACC were detected by Western blotting. ACC denotes acetyl-CoA carboxylase.

Jurkat cells = assay: Induction of cell death in cancer cells, WST-8 assay; format: cell-based; conditions: human T-cell leukemia
HeLa cells [4] = assay: as above; format: cell-based; conditions: human cervical cancer
[5] = test system: liver warm ischemia reperfusion injury; assay: Rat liver warm ischemia reperfusion injury model; format: in vivo; conditions: LEW rats, 0.3 mg/kg before ischemia
Protocol: An experiment was performed with a rat liver warm ischemia reperfusion model, in which LEW rats of eight to nine weeks of age were subjected to laparotomy under general anesthesia by endotracheal intubation, and after 20 minutes of warm ischemia applied by blocking the hepatic portal region, the blocking was released and reperfusion was carried out. With respect to positive subjects, using AICAR (aminoimidazole-4-carboxamide rebonucleoside), which is an AMPK activator, a solvent, Compound 1 (0.3 mg/kg), and AICAR (100 mg/kg) were administered, respectively, before ischemia, and aspartate aminotransferase (AST) and alanine aminotransferase (ALT), which are liver deviation enzymes, in peripheral blood were measured six hours after the reperfusion (N=3).

[6] = test system: Mouse spinal cord macrophages; assay: Inhibition of cell death in primary culture, WST-8 assay; format: cell-based; conditions: serum-containing or serum-free
Protocol: Mouse spinal cord macrophages were cultured under serum-containing or serum-free conditions, and after a predetermined period of time, a WST-8 assay was performed to confirm the cell number (N=6).

SH-SY5Y cells = assay: Induction of cell death in cancer cells; format: cell-based; conditions: human neuroblast
AMPKα = assay: Enhancement of phosphorylation of AMPK, Western blotting in NIH/3T3 cells; format: cell-based, mouse
Protocol: as §1

LC3-II = assay: Autophagy marker LC3-II in cancer cells, Western blotting; format: cell-based, human; conditions: HeLa cells, in the presence of 4 mM of BafA, cultured for 21 hours
Protocol: Bafilomycin A1 (BafA) is an autophagy inhibitor. BafA was added to HeLa cells for one hour and then Compound 1 was added thereto. After this was cultured for 21 hours, the cells were harvested to prepare a disrupted cell suspension, and the amount of LC3-II was confirmed by Western blotting. LC3-II is an autophagy marker.

mouse fibroblast MEF = assay: Inhibition of TNF-α induced apoptosis; format: cell-based
NIH/3T3 cells [7] = assay: Inhibition of cell death after storage at 4° C. and rewarming to 37° C.; format: cell-based, mouse; conditions: cells stored at 4° C. for 24 hours and then rewarmed to 37° C.
[8] = 16 hours after the addition (data not shown)
[9] = NIH/3T3 cells, serum-free, within 10 minutes after the addition

Question: Which “cell death caused by serum starvation (viable cell number)” value (“cell death caused by serum starvation” below) (NIH/3T3 cells [1]) does the source give for `Cc1ccc(S(=O)(=O)Nc2cc(C(F)(F)F)ccc2N2CC[C@@H]3CCCC[C@H]3C2)cc1` [Compound 3, N-(2-((4aS,8aR)-octahydroisoquinolin-2(1H)-yl)-5-(trifluoromethyl)phenyl)-4-toluenesulfonamide] here?
Answer: cell death inhibitory effect equivalent to that of Compound 1

Question: With `Cn1cnc(N)c2ncnc1-2` [Compound 3-MA, 3-Methyladenine, reference compound] as the compound, how does the “survival rate of the cells” value (HeLa cells [2]; HeLa cells with cell death induced by Compound 1, depending on the amount of 3-MA added) read?
Answer: improved

Question: With `O=S(=O)(Nc1cc(C(F)(F)F)ccc1N1CC[C@@H]2CCCC[C@H]2C1)c1ccc2ccccc2c1` [Compound 6, N-(2-((4aS,8aR)-octahydroisoquinolin-2(1H)-yl)-5-(trifluoromethyl)phenyl)-2-naphthalenesulfonamide] as the compound, how does the “cell death caused by serum starvation” value (NIH/3T3 cells [1]) read?
Answer: cell death inhibitory effect equivalent to that of Compound 1

Question: How did the “cell death caused by serum starvation” value (NIH/3T3 cells [1]) turn out when `O=S(=O)(Nc1cc(C(F)(F)F)ccc1N1CC[C@@H]2CCCC[C@H]2C1)c1ccc(Br)cc1` [Compound 4, 4-bromo-N-(2-((4aS,8aR)-octahydroisoquinolin-2(1H)-yl)-5-(trifluoromethyl)phenyl)benzenesulfonamide] was run?
Answer: cell death inhibitory effect equivalent to that of Compound 1

Question: How did the “phosphorylation of ACC” value [3, 8] turn out when `O=S(=O)(Nc1cc(C(F)(F)F)ccc1N1CC[C@@H]2CCCC[C@H]2C1)c1ccc(F)cc1` [Compound 1, 4-fluoro-N-(2-((4aS,8aR)-octahydroisoquinolin-2(1H)-yl)-5-(trifluoromethyl)phenyl)benzenesulfonamide] was run?
Answer: maintained

Question: What about the “phosphorylation of ACC” value [3, 9] of the same compound?
Answer: enhanced

Question: What about the “cell death in cancer cells” value (Jurkat cells) of the same compound?
Answer: able to induce cell death

Question: What about the “type of cell death induced in cancer cells” value (HeLa cells [2]; HeLa cells, with 3-MA, three days) of the same compound?
Answer: autophagic

Question: And the “cell death in cancer cells” value (HeLa cells [4])?
Answer: able to induce cell death

Question: What about the hepatic injury [5] of the same compound?
Answer: alleviate hepatic injury

Question: What about the “elevation of liver deviation enzymes (AST, ALT) in peripheral blood” value ([5]; 20 minutes warm ischemia, six hours after the reperfusion) of the same compound?
Answer: inhibited the elevation of liver deviation enzymes

Question: What about the “cell death in primary culture (viable cell number)” value [6] of the same compound?
Answer: significantly inhibited cell death

Question: And the “cell death caused by serum starvation” value (NIH/3T3 cells [1])?
Answer: significantly inhibited cell death

Question: What about the “cell death in cancer cells” value (SH-SY5Y cells) of the same compound?
Answer: able to induce cell death

Question: What about the “phosphorylation of AMPK” value (AMPKα; [8]) of the same compound?
Answer: maintained

Question: And the “phosphorylation of AMPK” value (AMPKα; [9])?
Answer: enhanced

Question: And the “amount of LC3-II” value (LC3-II)?
Answer: considerably increased

Question: And the “TNF-α induced apoptosis (proinflammatory cell death)” value (mouse fibroblast MEF)?
Answer: cell death inhibitory effect was observed

Question: What about the “cell death after cold storage and rewarming” value (NIH/3T3 cells [7]) of the same compound?
Answer: cell death inhibitory effect was observed

Question: With `O=S(=O)(Nc1cc(C(F)(F)F)ccc1N1CC[C@@H]2CCCC[C@H]2C1)c1ccccc1` [Compound 2, N-(2-((4aS,8aR)-octahydroisoquinolin-2(1H)-yl)-5-(trifluoromethyl)phenyl)benzenesulfonamide] as the compound, how does the “cell death caused by serum starvation” value (NIH/3T3 cells [1]) read?
Answer: cell death inhibitory effect equivalent to that of Compound 1
